Results as given in patent US20220289794A1, “SYNTHETIC ANTIMICROBIAL PEPTIDES” (priority 2019, published 2022).
Values after ≈ are worked out from the molar mass of the structure shown. Where two headings read alike, the source gives them in different places. Non-standard residues stand in square brackets, D forms with d. Residues, ends and D or L forms follow the SMILES beside them. Dip = N[C@H](C(=O)O)C(c1ccccc1)c1ccccc1; 2Nal = N[C@@H](Cc1ccc2ccccc2c1)C(=O)O

Columns and labels:
[1] = system: KPC
[2] = system: PSA
[3] = system: E. coli
[4] = system: MRSA
[5] = system: A. baumannii (ATCC BAA-1605); assay: Broad-spectrum activity against Gram-Negative bacteria (MIC); assay type: cell-based; details: Table 16, Gram-negative panel
[6] = system: P. aeruginosa (ATCC 10145); assay: as above; assay type: cell-based; details: Table 16, Gram-negative panel
[7] = system: B. subtilis (ATCC-6633); assay: Broad-spectrum activity against Gram-Positive bacteria (MIC); assay type: cell-based; parameters: unit not given here
[8] = system: Pseudomonas aeruginosa (ATCC 27883); details: ATCC 27883
[9] = system: Enterococcus faecium ATCC 27270; details: E. faecium ATCC 27270
[10] = system: P. aeruginosa (ATCC BAA-1744); assay: Broad-spectrum activity against Gram-Negative bacteria (MIC); assay type: cell-based; details: Table 16, Gram-negative panel
[11] = system: E. coli (ATCC BAA-2452); assay: as above; assay type: cell-based; details: Table 16, Gram-negative panel
[12] = system: Enterococcus faecalis ATCC 29212; details: E. faecalis ATCC 29212
[13] = system: human red blood cells; parameters: unit not given beside the values
[14] = system: Enterococcus faecalis ATCC 51575; details: E. faecalis ATCC 51575
[15] = system: Streptococcus pneumoniae ATCC 51938; details: S. pneumoniae ATCC 51938
[16] = system: Methicillin-resistant Staphylococcus aureus MRSA (ATCC BAA-1556); details: ATCC BAA-1556
[17] = system: Klebsiella pneumoniae (ATCC BAA-1705); details: Table 16, Gram-negative panel
[18] = system: Streptococcus pneumoniae ATCC 49619; details: S. pneumoniae ATCC 49619
[19] = system: B. cereus (ATCC-13061); assay: Broad-spectrum activity against Gram-Positive bacteria (MIC); assay type: cell-based; parameters: unit not given here
[20] = system: Klebsiella pneumoniae ATCC 13883; details: Table 16, Gram-negative panel
[21] = system: Escherichia coli (ATCC 25922); details: ATCC 25922
[22] = system: S. aureus ATCC 29213; details: ATCC 29213
[23] = system: Enterococcus faecium ATCC 700221; details: E. faecium ATCC 700221
[24] = system: Escherichia coli (E. Coli, ATCC 25922); details: Escherichia coli (ATCC 25922); antibiotic alone
[25] = system: Escherichia coli (E. Coli, ATCC 25922); assay: microbe, parasite or virus in culture; details: ATCC25922, 24 h
[26] = system: Klebsiella pneumoniae (KPC, ATCC BAA-1705); assay: microbe, parasite or virus in culture; details: ATCCBAA1705, 24 h
[27] = system: Methicillin-resistant Staphylococcus aureus MRSA (ATCC BAA-1556); assay: microbe, parasite or virus in culture; details: ATCCBAA1556|MRSA, 24 h
[28] = system: Pseudomonas aeruginosa (PSA, ATCC 27883); assay: microbe, parasite or virus in culture; details: ATCC27883, 24 h

N=C(N)NCCC[C@@H]1NC(=O)[C@H](CCCNC(=N)N)NC(=O)[C@H](CCCNC(=N)N)NC(=O)[C@H](Cc2c[nH]c3ccccc23)NC(=O)[C@H](Cc2c[nH]c3ccccc23)NC(=O)[C@H](Cc2c[nH]c3ccccc23)NC(=O)[C@H](Cc2c[nH]c3ccccc23)NC(=O)[C@H](CCCNC(=N)N)NC(=O)[C@H](CCCNC(=N)N)NC1=O [[R5W4] IFX-301]
MIC [1]: 32 µg/mL (≈ 21 µM)
MIC [2]: 32 µg/mL (≈ 21 µM)
MIC [3]: 16 µg/mL (≈ 10.5 µM)

N=C(N)NCCC[C@@H]1NC(=O)[C@H](CCCNC(=N)N)NC(=O)[C@H](CCCNC(=N)N)NC(=O)[C@H](CCCNC(=N)N)NC(=O)[C@H](Cc2c[nH]c3ccccc23)NC(=O)[C@H](Cc2c[nH]c3ccccc23)NC(=O)[C@H](Cc2c[nH]c3ccccc23)NC(=O)[C@H](Cc2c[nH]c3ccccc23)NC(=O)[C@H](CCCNC(=N)N)NC(=O)[C@H](CCCNC(=N)N)NC(=O)[C@H](CCCNC(=N)N)NC1=O [[R7W4] (IFX-322)] (cyclo(RRRRRRRWWWW))
MIC Klebsiella pneumoniae (ATCC BAA-1705) [1]: 64 µg/mL (≈ 34.8 µM)
MIC Pseudomonas aeruginosa (ATCC 27883) [2]: 32 µg/mL (≈ 17.4 µM)
MIC Escherichia coli (ATCC 25922) [3]: 32 µg/mL (≈ 17.4 µM)
MIC MRSA ATCC BAA-1556 [4]: 16 µg/mL (≈ 8.7 µM)

N=C(N)NCCC[C@@H]1NC(=O)[C@H](CCCNC(=N)N)NC(=O)[C@H](Cc2c[nH]c3ccccc23)NC(=O)[C@H](Cc2c[nH]c3ccccc23)NC(=O)[C@H](Cc2c[nH]c3ccccc23)NC(=O)[C@H](CCCNC(=N)N)NC1=O [[R3W3] (IFX-302)] (cyclo(WWWRRR))
MIC Klebsiella pneumoniae (ATCC BAA-1705) [1]: 64 µg/mL (≈ 62.3 µM)
MIC Pseudomonas aeruginosa (ATCC 27883) [2]: 128 µg/mL (≈ 125 µM)
MIC Escherichia coli (ATCC 25922) [3]: 32 µg/mL (≈ 31.2 µM)
MIC MRSA ATCC BAA-1556 [4]: 16 µg/mL (≈ 15.6 µM)

H-RRRRRWWWWK-OH [Linear R5W4K (SEQ ID NO. 36)]
MIC Klebsiella pneumoniae (ATCC BAA-1705) [1]: 64 µg/mL
MIC Pseudomonas aeruginosa (ATCC 27883) [2]: 32 µg/mL
MIC Escherichia coli (ATCC 25922) [3]: 32 µg/mL
MIC MRSA ATCC BAA-1556 [4]: 8 µg/mL

N=C(N)NCCC[C@@H]1NC(=O)[C@H](CCCNC(=N)N)NC(=O)[C@H](CCCNC(=N)N)NC(=O)[C@H](CCCNC(=N)N)NC(=O)[C@H](Cc2c[nH]c3ccccc23)NC(=O)[C@H](Cc2c[nH]c3ccccc23)NC(=O)[C@H](Cc2c[nH]c3ccccc23)NC(=O)[C@H](Cc2c[nH]c3ccccc23)NC(=O)[C@H](CCCNC(=N)N)NC(=O)[C@H](CCCNC(=N)N)NC1=O [[R6W4] (IFX-318)] (cyclo(RRRRRRWWWW))
MIC Klebsiella pneumoniae (ATCC BAA-1705) [1]: 64 µg/mL (≈ 38.1 µM)
MIC Pseudomonas aeruginosa (ATCC 27883) [2]: 16 µg/mL (≈ 9.51 µM)
MIC Escherichia coli (ATCC 25922) [3]: 32 µg/mL (≈ 19 µM)
MIC [4]: 8 µg/mL (≈ 4.76 µM)
MIC MRSA ATCC BAA-1556 [4]: 4 µg/mL (≈ 2.38 µM)

N=C(N)NCCC[C@@H]1NC(=O)[C@H](CCCNC(=N)N)NC(=O)[C@H](Cc2ccc3ccccc3c2)NC(=O)[C@H](Cc2ccc3ccccc3c2)NC(=O)[C@H](CCCNC(=N)N)NC(=O)[C@H](CCCNC(=N)N)NC(=O)[C@H](Cc2ccc3ccccc3c2)NC1=O [IFX-018, c[Arg-NaI-Arg-Arg-NaI-NaI-Arg]] (cyclo(R[2Nal]RR[2Nal][2Nal]R))
MIC A. baumannii (ATCC BAA-1605) [5]: 6.2 µg/mL (≈ 5.1 µM)
MIC P. aeruginosa (ATCC 10145) [6]: 50 µg/mL (≈ 41.1 µM)
Broad-spectrum activity B. subtilis (ATCC-6633) [7]: 1.5
MIC P. aeruginosa ATCC 27883 [8]: >100 µg/mL
Broad-spectrum activity E. faecium (ATCC 27270) [9]: 1.5
MIC P. aeruginosa (ATCC BAA-1744) [10]: 25 µg/mL (≈ 20.6 µM)
MIC E. coli (ATCC BAA-2452) [11]: 12.5 µg/mL (≈ 10.3 µM)
Broad-spectrum activity E. faecalis (ATCC 29212) [12]: 6.2
HC50 [13]: 300
Broad-spectrum activity E. faecalis (ATCC 51575) [14]: 12.5
Broad-spectrum activity S. pneumoniae (ATCC 51938) [15]: 12.5
MIC MRSA ATCC BAA-1556 [16]: 6.2 µg/mL (≈ 5.1 µM)
MIC K. pneumonia (ATCC BAA-1705) [17]: 25 µg/mL (≈ 20.6 µM)
Broad-spectrum activity S. pneumoniae (ATCC 49619) [18]: 25
Broad-spectrum activity B. cereus (ATCC-13061) [19]: 3.1
MIC K. pneumonia (ATCC 13883) [20]: 50 µg/mL (≈ 41.1 µM)
MIC E. coli ATCC 25922 [21]: 25 µg/mL (≈ 20.6 µM)
MIC S. aureus ATCC 29213 [22]: 6.2 µg/mL (≈ 5.1 µM)
Broad-spectrum activity E. faecium (ATCC 700221) [23]: 1.5

N=C(N)NCCC[C@@H]1NC(=O)[C@H](CCCNC(=N)N)NC(=O)[C@H](CCCNC(=N)N)NC(=O)[C@H](Cc2c[nH]c3ccccc23)NC(=O)[C@H](Cc2c[nH]c3ccccc23)NC(=O)[C@H](Cc2c[nH]c3ccccc23)NC(=O)[C@H](Cc2c[nH]c3ccccc23)NC(=O)[C@H](CCCNC(=N)N)NC1=O [[R4W4] (IFX-326)] (cyclo(RRRRWWWW))
MIC Klebsiella pneumoniae (ATCC BAA-1705) [1]: 32 µg/mL (≈ 23.4 µM)
MIC Pseudomonas aeruginosa (ATCC 27883) [2]: 64 µg/mL (≈ 46.7 µM)
MIC Escherichia coli (ATCC 25922) [3]: 16 µg/mL (≈ 11.7 µM)
MIC MRSA ATCC BAA-1556 [4]: 4 µg/mL (≈ 2.92 µM)

N=C(N)NCCC[C@@H]1NC(=O)[C@H](CCCNC(=N)N)NC(=O)[C@H](CCCNC(=N)N)NC(=O)[C@H](C(c2ccccc2)c2ccccc2)NC(=O)[C@H](C(c2ccccc2)c2ccccc2)NC(=O)[C@H](C(c2ccccc2)c2ccccc2)NC(=O)[C@H](CCCNC(=N)N)NC1=O [IFX-008, c[Arg-Arg-Arg-Arg-Dip-Dip-Dip]] (cyclo(RRRR[Dip][Dip][Dip]))
MIC A. baumannii (ATCC BAA-1605) [5]: 12.5 µg/mL (≈ 9.66 µM)
MIC P. aeruginosa (ATCC 10145) [6]: 25 µg/mL (≈ 19.3 µM)
Broad-spectrum activity B. subtilis (ATCC-6633) [7]: 1.5
MIC P. aeruginosa ATCC 27883 [8]: 12.5 µg/mL (≈ 9.66 µM)
Broad-spectrum activity E. faecium (ATCC 27270) [9]: 3.1
MIC P. aeruginosa (ATCC BAA-1744) [10]: 12.5 µg/mL (≈ 9.66 µM)
MIC E. coli (ATCC BAA-2452) [11]: 6.2 µg/mL (≈ 4.79 µM)
Broad-spectrum activity E. faecalis (ATCC 29212) [12]: 6.2
HC50 [13]: 190
Broad-spectrum activity E. faecalis (ATCC 51575) [14]: 12.5
Broad-spectrum activity S. pneumoniae (ATCC 51938) [15]: 12.5
MIC MRSA ATCC BAA-1556 [16]: 1.5 µg/mL (≈ 1.16 µM)
MIC K. pneumonia (ATCC BAA-1705) [17]: 12.5 µg/mL (≈ 9.66 µM)
Broad-spectrum activity S. pneumoniae (ATCC 49619) [18]: 25
Broad-spectrum activity B. cereus (ATCC-13061) [19]: 6.2
MIC K. pneumonia (ATCC 13883) [20]: 50 µg/mL (≈ 38.6 µM)
MIC E. coli ATCC 25922 [21]: 12.5 µg/mL (≈ 9.66 µM)
MIC S. aureus ATCC 29213 [22]: 1.5 µg/mL (≈ 1.16 µM)
Broad-spectrum activity E. faecium (ATCC 700221) [23]: 1.5

O=C(O)c1cn(C2CC2)c2cc(N3CCNCC3)c(F)cc2c1=O [Ciprofloxacin, reference compound]
MIC of antibiotic [24]: 64 µg/mL

Cc1ncc([N+](=O)[O-])n1CCO [Metronidazole]
MIC ([25]; read-out: Escherichia coli (ATCC 25922) MIC, Table 28, IFX-031, antibiotics alone and PHY-MIX (1:1 w/w)): > 32 µg/mL
MIC ([25]; read-out: Escherichia coli (ATCC 25922) MIC, Table 29, [R6W4] (IFX-318), antibiotics alone and PHY-MIX (1:1 w/w)): > 32 µg/mL
MIC ([25]; read-out: Escherichia coli (ATCC 25922) MIC, Table 30, [R5W4K] (IFX-315), antibiotics alone and PHY-MIX (1:1 w/w)): > 32 µg/mL
MIC ([25]; read-out: Escherichia coli (ATCC 25922) MIC, Table 31, [R5W4] (IFX-301), antibiotics alone and PHY-MIX (1:1 w/w)): > 32 µg/mL
MIC ([26]; read-out: Klebsiella pneumoniae (ATCC BAA-1705) MIC, Table 28, IFX-031, antibiotics alone and PHY-MIX (1:1 w/w)): > 32 µg/mL
MIC ([26]; read-out: Klebsiella pneumoniae (ATCC BAA-1705) MIC, Table 29, [R6W4] (IFX-318), antibiotics alone and PHY-MIX (1:1 w/w)): > 32 µg/mL
MIC ([26]; read-out: Klebsiella pneumoniae (ATCC BAA-1705) MIC, Table 30, [R5W4K] (IFX-315), antibiotics alone and PHY-MIX (1:1 w/w)): > 32 µg/mL
MIC ([26]; read-out: Klebsiella pneumoniae (ATCC BAA-1705) MIC, Table 31, [R5W4] (IFX-301), antibiotics alone and PHY-MIX (1:1 w/w)): > 32 µg/mL
MIC ([27]; read-out: MRSA (ATCC BAA-1556) MIC, Table 28, IFX-031, antibiotics alone and PHY-MIX (1:1 w/w)): > 32 µg/mL
MIC ([27]; read-out: MRSA (ATCC BAA-1556) MIC, Table 31, [R5W4] (IFX-301), antibiotics alone and PHY-MIX (1:1 w/w)): > 32 µg/mL
MIC ([28]; read-out: Pseudomonas aeruginosa (ATCC 27883) MIC, Table 29, [R6W4] (IFX-318), antibiotics alone and PHY-MIX (1:1 w/w)): > 32 µg/mL
MIC ([28]; read-out: Pseudomonas aeruginosa (ATCC 27883) MIC, Table 30, [R5W4K] (IFX-315), antibiotics alone and PHY-MIX (1:1 w/w)): > 32 µg/mL
